Where “and” joins values, the source holds several entries; their conditions need not be identical. Equal values may be shown once. Inconclusive results and toxic doses are left out. The calls were made as follows: active = survival T/C of 150% or more; inactive = T/C below 125% in these data.
Tested on: CD2F1 mice, L1210 leukemia ip, survival T/C
Experiment: NCI In Vivo Anticancer Drug Screen. Data for tumor model L1210 Leukemia (intraperitoneal) in CD2F1 (CDF1) mice
Conditions: higher = longer survival
Method in brief: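 Activity against a transplanted murine tumor was judged by comparing the compound group with a vehicle group. The outcome in the treated animals was divided by that in the controls.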

[1] = endpoint: mean survival time, dose: 100.0 mg/kg/injection, schedule: Q01DX009 (ip), vehicle: saline
[2] = endpoint: mean survival time, dose: 50.0 mg/kg/injection, schedule: Q01DX009 (ip), vehicle: saline with Tween-80
[3] = endpoint: mean survival time, dose: 200.0 mg/kg/injection, schedule: Q01DX009 (ip), vehicle: saline with Tween-80
[4] = endpoint: mean survival time, dose: 100.0 mg/kg/injection, schedule: Q01DX009 (ip), vehicle: saline with Tween-80
[5] = endpoint: mean survival time, dose: 100.0 mg/kg/injection, schedule: Q04DX003 (ip), vehicle: saline with Tween-80
[6] = endpoint: mean survival time, dose: 200.0 mg/kg/injection, schedule: Q04DX003 (ip), vehicle: saline with Tween-80
[7] = endpoint: mean survival time, dose: 100.0 mg/kg/injection, schedule: Q04DX003 (ip), vehicle: Klucel (hydroxypropylcellulose) (HPC)
[8] = endpoint: mean survival time, dose: 200.0 mg/kg/injection, schedule: Q04DX003 (ip), vehicle: Klucel (hydroxypropylcellulose) (HPC)
[9] = endpoint: mean survival time, dose: 100.0 mg/kg/injection, schedule: Q04DX002 (ip), vehicle: saline with Tween-80
[10] = endpoint: mean survival time, dose: 200.0 mg/kg/injection, schedule: Q04DX002 (ip), vehicle: saline with Tween-80
[11] = endpoint: mean survival time, dose: 400.0 mg/kg/injection, schedule: Q04DX003 (ip), vehicle: saline with Tween-80
[12] = endpoint: mean survival time, dose: 400.0 mg/kg/injection, schedule: Q04DX003 (ip), vehicle: Klucel (hydroxypropylcellulose) (HPC)

Measured: T/C

O=CNCCN(C=O)CCO
inactive: [1] 97 % of control | endpoint: mean survival time, dose: 200.0 mg/kg/injection, schedule: Q01DX009 (ip), vehicle: saline 104 % of control | endpoint: mean survival time, dose: 400.0 mg/kg/injection, schedule: Q01DX009 (ip), vehicle: saline 98 % of control

C/C=C\c1ccc(OCCOC(=O)Nc2ccc(C)c([N+](=O)[O-])c2)c(OC)c1
inactive: endpoint: mean survival time, dose: 12.5 mg/kg/injection, schedule: Q01DX009 (ip), vehicle: saline with Tween-80 98 % of control | endpoint: mean survival time, dose: 25.0 mg/kg/injection, schedule: Q01DX009 (ip), vehicle: saline with Tween-80 92 % of control | [2] 88 % of control and 92 % of control | [3] 88 % of control

O=C(OCC1OC(n2cnc3cc(Cl)c(Cl)cc32)C(OC(=O)c2ccccc2)C1OC(=O)c1ccccc1)c1ccccc1 (stereo not given)
inactive: endpoint: mean survival time, dose: 12.5 mg/kg/injection, schedule: Q01DX005 (ip), vehicle: distilled water + Tween-80 95 % of control | endpoint: mean survival time, dose: 25.0 mg/kg/injection, schedule: Q01DX005 (ip), vehicle: distilled water + Tween-80 101 % of control | endpoint: mean survival time, dose: 50.0 mg/kg/injection, schedule: Q01DX005 (ip), vehicle: distilled water + Tween-80 93 % of control | endpoint: mean survival time, dose: 100.0 mg/kg/injection, schedule: Q01DX005 (ip), vehicle: distilled water + Tween-80 95 % of control

OCCNCc1ccc(Cl)cc1
inactive: [2] 96 % of control | [4] 98 % of control | [5] 103 % of control | [3] 93 % of control | [6] 96 % of control

COC1(c2ccccc2)c2ccccc2C(OC)(c2ccccc2)c2cc(Cl)ccc21 (stereo not given)
inactive: endpoint: mean survival time, dose: 100.0 mg/kg/injection, schedule: Q01DX001 (ip), vehicle: Klucel (hydroxypropylcellulose) (HPC) 96 % of control | endpoint: mean survival time, dose: 200.0 mg/kg/injection, schedule: Q01DX001 (ip), vehicle: Klucel (hydroxypropylcellulose) (HPC) 89 % of control

CN(C)CC1CCCC12OCCO2 (stereo not given)
inactive: endpoint: mean survival time, dose: 75.0 mg/kg/injection, schedule: Q01DX001 (ip), vehicle: other 100 % of control | endpoint: mean survival time, dose: 150.0 mg/kg/injection, schedule: Q01DX001 (ip), vehicle: other 96 % of control | endpoint: mean survival time, dose: 300.0 mg/kg/injection, schedule: Q01DX001 (ip), vehicle: other 106 % of control

COCC1OC(OC)C(OC(=O)c2ccccc2)C(OC(=O)c2ccccc2)C1OC (stereo not given)
inactive: endpoint: mean survival time, dose: 100.0 mg/kg/injection, schedule: Q01DX001 (ip), vehicle: saline with Tween-80 90 % of control | endpoint: mean survival time, dose: 200.0 mg/kg/injection, schedule: Q01DX001 (ip), vehicle: saline with Tween-80 91 % of control | endpoint: mean survival time, dose: 400.0 mg/kg/injection, schedule: Q01DX001 (ip), vehicle: saline with Tween-80 90 % of control

CC12CCC(=O)C=C1CCC1C2C(=O)CC2(C)C1CCC2(O)C(=O)Cn1cc(F)c(=O)[nH]c1=O (stereo not given)
inactive: endpoint: mean survival time, dose: 12.5 mg/kg/injection, schedule: Q04DX003 (ip), vehicle: Klucel (hydroxypropylcellulose) (HPC) 100 % of control | endpoint: mean survival time, dose: 25.0 mg/kg/injection, schedule: Q04DX003 (ip), vehicle: Klucel (hydroxypropylcellulose) (HPC) 103 % of control | endpoint: mean survival time, dose: 50.0 mg/kg/injection, schedule: Q04DX003 (ip), vehicle: Klucel (hydroxypropylcellulose) (HPC) 100 % of control | [7] 96 % of control | [8] 94 % of control

OC1(c2cccc(C(F)(F)F)c2)CCN(C2CC2c2ccccc2)CC1 (stereo not given)
inactive: [9] 97 % of control | [10] 95 % of control

CCOC(=O)C(=O)Nc1onc(C)c1NC(=O)C(=O)OCC
inactive: [5] 100 % of control | [6] 107 % of control | [11] 96 % of control

COCCOCCOCCOCCOCCOCCOCCOC(=O)Nc1ccc(C)c(NC(=O)OCCOCCOCCOCCOCCOCCOCCOC)c1
inactive: endpoint: mean survival time, dose: 100.0 mg/kg/injection, schedule: Q01DX009 (ip), vehicle: saline sonified 96 % of control | endpoint: mean survival time, dose: 100.0 mg/kg/injection, schedule: Q04DX003 (ip), vehicle: saline 96 % of control | endpoint: mean survival time, dose: 200.0 mg/kg/injection, schedule: Q01DX009 (ip), vehicle: saline sonified 96 % of control | endpoint: mean survival time, dose: 200.0 mg/kg/injection, schedule: Q04DX003 (ip), vehicle: saline 100 % of control | endpoint: mean survival time, dose: 400.0 mg/kg/injection, schedule: Q01DX009 (ip), vehicle: saline sonified 93 % of control | endpoint: mean survival time, dose: 400.0 mg/kg/injection, schedule: Q04DX003 (ip), vehicle: saline 100 % of control

CCN(CC)[S+](C)(=O)/C=C(\[O-])Nc1ccccc1 (stereo not given)
inactive: endpoint: mean survival time, dose: 25.0 mg/kg/injection, schedule: Q01DX001 (ip), vehicle: other 103 % of control | endpoint: mean survival time, dose: 50.0 mg/kg/injection, schedule: Q01DX001 (ip), vehicle: other 94 % of control | endpoint: mean survival time, dose: 100.0 mg/kg/injection, schedule: Q01DX001 (ip), vehicle: other 90 % of control

CC1=NN(c2cccc(S(=O)(=O)O)c2)C(=O)C1Cl (stereo not given)
inactive: [2] 98 % of control | [4] 95 % of control | [3] 95 % of control

CC#CC(C)=O
inactive: endpoint: mean survival time, dose: 25.0 mg/kg/injection, schedule: Q01DX009 (ip), vehicle: saline 93 % of control | endpoint: mean survival time, dose: 50.0 mg/kg/injection, schedule: Q01DX009 (ip), vehicle: saline 96 % of control | [1] 97 % of control

O=C(OCC1OC(n2cnc3c(=O)[nH][nH]c(=O)c32)C(OC(=O)c2ccccc2)C1OC(=O)c1ccccc1)c1ccccc1 (stereo not given)
inactive: endpoint: median survival time, dose: 8.25 mg/kg/injection, schedule: Q01DX005 (ip), vehicle: Klucel (hydroxypropylcellulose) (HPC) 104 % of control | endpoint: median survival time, dose: 16.5 mg/kg/injection, schedule: Q01DX005 (ip), vehicle: Klucel (hydroxypropylcellulose) (HPC) 98 % of control | endpoint: median survival time, dose: 33.0 mg/kg/injection, schedule: Q01DX005 (ip), vehicle: Klucel (hydroxypropylcellulose) (HPC) 97 % of control | endpoint: median survival time, dose: 66.0 mg/kg/injection, schedule: Q01DX005 (ip), vehicle: Klucel (hydroxypropylcellulose) (HPC) 101 % of control | endpoint: median survival time, dose: 132.0 mg/kg/injection, schedule: Q01DX005 (ip), vehicle: Klucel (hydroxypropylcellulose) (HPC) 102 % of control

O=[N+]([O-])c1cc(Cl)ccc1Nc1ccccc1
inactive: [7] 102 % of control | [8] 102 % of control | [12] 98 % of control

CC(=O)CC(C)=NCC(C)N=C(C)CC(C)=O.c1cc[c]([Sn][c]2ccccc2)cc1 (stereo not given)
inactive: endpoint: mean survival time, dose: 2.5 mg/kg/injection, schedule: Q01DX009 (ip), vehicle: saline with Tween-80 93 % of control | endpoint: mean survival time, dose: 5.0 mg/kg/injection, schedule: Q01DX001 (ip), vehicle: saline with Tween-80 98 % of control | endpoint: mean survival time, dose: 5.0 mg/kg/injection, schedule: Q01DX009 (ip), vehicle: saline with Tween-80 107 % of control | endpoint: mean survival time, dose: 10.0 mg/kg/injection, schedule: Q01DX001 (ip), vehicle: saline with Tween-80 103 % of control

Cc1cc(=O)[nH]c2c(C)cc(Cl)cc12
inactive: [5] 106 % of control | [6] 109 % of control | [11] 97 % of control

COc1cc(/C=C2/CCCCC2=O)ccc1O
inactive: endpoint: mean survival time, dose: 100.0 mg/kg/injection, schedule: Q01DX009 (ip), vehicle: other 104 % of control | endpoint: mean survival time, dose: 200.0 mg/kg/injection, schedule: Q01DX009 (ip), vehicle: other 98 % of control | endpoint: mean survival time, dose: 400.0 mg/kg/injection, schedule: Q01DX009 (ip), vehicle: other 98 % of control

CNc1ccc(CC(=O)O)cc1
inactive: [7] 92 % of control | [8] 93 % of control | [12] 96 % of control

Cc1ccccc1NC(=O)Oc1c(C)cccc1C
inactive: [9] 97 % of control | [10] 101 % of control | endpoint: mean survival time, dose: 400.0 mg/kg/injection, schedule: Q04DX002 (ip), vehicle: saline with Tween-80 101 % of control

CC(=O)n1c(COS(C)(=O)=O)nc2ccccc21
inactive: endpoint: mean survival time, dose: 25.0 mg/kg/injection, schedule: Q01DX001 (ip), vehicle: carboxymethylcellulose (CMC) 105 % of control | endpoint: mean survival time, dose: 50.0 mg/kg/injection, schedule: Q01DX001 (ip), vehicle: carboxymethylcellulose (CMC) 103 % of control
